Experiments:
C. elegans strain CB5586 = experiment: Phenotypic lifespan screening in C. elegans; assay type: in vivo
Protocol: Dilutions of the test formulations were applied to individual populations of C. elegans and the lifespan of each population was monitored. Any changes in the lifespan of an individual population compared to a control population were recorded and correlated to the respective test formulation (N356 or N357) and the respective dilution (0.1 mg/ml, 1 mg/ml, and 10 mg/ml).
The N256 and N357 formulations were each prepared as individual 100 mg/ml stock solutions in dimethyl sulfoxide (DMSO). Serial dilutions of each stock solution were then prepared at 0.1 mg/ml, 1 mg/ml, and 10 mg/ml in DMSO. Control solutions of DMSO only were also prepared. Synchronous aged adult populations of C. elegans strain CB5586 worms were prepared. The CB5586 strain comprises a pharyngeal GFP (green fluorescent protein) tag and a mutation in the bus-5 gene. The pharyngeal GFP tag allows for fluorescent images of the worm populations to be taken. The mutation in the bus-5 gene causes the loss of normal cuticle antigens that permits the cuticle of the worms to become permeable to the test formulations and allow direct uptake of the test formulations to avoid interaction of the test formulations with protective mechanisms of the gut channel. Each serial dilution of each test formulation was added to a separate population of the prepared worms. The control solutions were also added to separate populations of the prepared worms. The populations of the prepared worms were then maintained on standard nematode growth media (NGM) agar plates at 20° C. with sufficient food (Escherichia coli strain OP-50).
Each worm population was then monitored by fluorescent imaging to determine the number of living and dead worms as a function of time. The fluorescent imaging was analyzed by software that recognized and counted worms based on their fluorescent intensity compared to background fluorescence. […] The ability to distinguish between living and dead worms allowed the number of living worms and a cumulative number of dead worms to be monitored against time. Worm populations from a selection of fluorescent images were manually checked to verify that the software had accurately counted the number of living and dead worms.
The counts of the living and dead worms as a function of time were then analyzed for each of the worm populations and used to prepare Kaplan-Meier survival curves and associated statistics for each of the worm populations. […] The median lifespan is shown as the length of time after the last mitotic division that 50% of the test population remains viable when compared to the control population. The maximum lifespan extension is shown as the length of time after the last mitotic division that 5% of the test population remains viable when compared to the control population.
The counts of the living and dead worms as a function of time and the Kaplan-Meier survival curves and the associated statistics were then analyzed for each of the worm populations. The analysis included determining mean and median lifespan. The analysis included a non-parametric test, the Log-Rank test, which compares two survival functions for the overall lifespan assay and provides a reliable p-value summarizing the whole experiment. The analysis also included Fisher's Exact Test that calculated the significance of survival function comparisons at multiple specific time points throughout the experiment, rather than for the overall lifespan. The results of the analysis are shown below in Tables 10-17.
Phenotypic screening was carried out as described in EXAMPLE 2 for various individual compounds of the N357 formulation. […] Alpha lipoic acid was sourced from PureBulk™ USA as a racemic mix of R and S stereoisomers and was assigned a sample number of N198. Hesperidin was sourced from Sigma Aldrich at ≥80% purity and was assigned a sample number of N347. […]

human NF-κB = experiment: NF-κB reporter cell assay, antagonist mode; assay type: cell-based; conditions: 2.54 μg/ml
mTOR = target: T1, mTOR (Homo sapiens, UniProt P42345); conditions: cited from earlier work
T1 construct: host or cells: isolated cells in culture (not specified)

[1] = system: NF-κB reporter cells (HEK293); experiment: Live cell multiplex read-out in the NF-κB antagonist assay; assay type: cell-based, human
Protocol: Various receptor assays were carried out for test compounds corresponding to ingredients of the nutritional supplement composition. In general, the receptor assays utilized reporter cells that either expressed a native receptor or a receptor hybrid. The receptor hybrids were engineered so that the native N-terminal DNA binding domain (DBD) was replaced with a yeast Gal4 DBD. The reporter cells expressed a hybrid receptor comprising either the native receptor (Nrf2 and NF-κB) or the N-terminal Gal4 DNA binding domain fused to the ligand binding domain of the specific human nuclear receptor (PPARα, PPARδ, and PPARγ). The reporter gene (e.g., firefly luciferase) was functionally linked to either upstream receptor-specific response elements (GRE) or the Gal4 upstream activation sequence (UAS). A summary of the receptors, the reporter cells used for each particular receptor assay, and the reference compounds used to confirm performance of the receptor assays are indicated below in Table 4.
A vehicle control was prepared. […] After incubation, fluorescence was measured to determine a relative number of live cells per test well.

Nrf2 = Nrf2 signaling fluorescent reporter assay in human retinal epithelial cell line; assay type: cell-based
Protocol: The assays were carried out with a fluorescent reporter assay that utilized a human retinal epithelial cell line. The assays also included validation by RT-PCR (reverse transcription polymerase chain reaction) of Nrf2 target genes. The human retinal epithelial cell line was purchased from ATCC (American Type Cell Culture, Manassas, Va.) and was configured to function as a fluorescent reporter assay. Test solutions of each of the alpha lipoic acid, resveratrol, curcumin, EGCG, Olivol®, rutin, quercetin, and hesperetin were prepared by serial dilution. Control solutions were also prepared. Positive control solutions of a known Nrf2 agonist, L-sulphoraphane was also prepared. Each test solution was then assayed for Nrf2 signaling activity using the fluorescent reporter assay and compared to control assays. The positive control solutions were also tested.

In the case of `Oc1ccc(/C=C/c2cc(O)cc(O)c2)cc1` [Resveratrol, 3,5,4′-trihydroxy-trans-stilbene], the “Statistically Significant Result” value (C. elegans strain CB5586; 0.1 mg/ml compared to DMSO control) was “No statistical difference”, the “effect on chronological lifespan” value (C. elegans strain CB5586; 0.1 and 10 mg/ml tested) was “significant positive and dose-dependent increase of chronological lifespan” and the “NF-κB % Inhibition” value (human NF-κB) was −50%. For the same molecule, the “mTOR inhibition” value (mTOR; applied to isolated cells in culture) was “inhibit mTOR”, the “mTOR inhibition, mitophagy and mitochondrial turnover” value (mTOR) was “inhibit mTOR, up-regulate mitophagy, and increase the rate of mitochondrial turnover” and the “NF-κB % Live Cell” value ([1]; 0.28 μg/ml (resveratrol series)) was 100%. The “NF-κB % Live Cell” value ([1]; 0.85 μg/ml) was 100%, the “activation of Nrf2” value (Nrf2; 10 μM and 1) was “demonstrated activation of Nrf2” and the “concentration with more activation of Nrf2” value (Nrf2; of 10 μM and 1) was 10 µM.

Reference: patent publication US10632101B2, “Methods and compositions for supporting endogenous systems related to life span” (USANA Health Sciences, Inc., priority 2016, dated 2020)
